{"source": "PubChem BioAssay (NCI)", "test_system": "MDA-MB-468 breast", "test": "inhibition of tumour cell growth, NCI panel, 48 h", "note": "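How tested: cells in 96-well plates exposed to compound for 48 hours at five concentrations. GI50 is the concentration that inhibits growth by half. At the TGI there is no net growth.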", "data": [{"smiles": "O=C1Nc2ccccc2/C1=C1\\CCc2cc(O)ccc21", "values": [{"measurement": "GI50", "value": 3.33, "unit": "µM"}, {"measurement": "TGI", "value": "> 21.8", "unit": "µM"}]}, {"smiles": "CC(C)[C@H](O)C(=O)N[C@@H](C)C(=O)N[C@@H]1C(=O)N(C)CCc2ccccc21", "values": [{"measurement": "GI50", "value": "> 100", "unit": "µM"}, {"measurement": "TGI", "value": "> 100", "unit": "µM"}]}, {"smiles": "ClCCN(CCCl)c1ccc(CNc2ccccc2)cc1", "values": [{"measurement": "GI50", "value": 2.14, "unit": "µM"}, {"measurement": "TGI", "value": 23.4, "unit": "µM"}]}, {"smiles": "CC(C)c1[nH]nc2c1N=C(c1ccccc1Cl)c1cc([N+](=O)[O-])ccc1N2", "values": [{"measurement": "GI50", "value": 2.93, "unit": "µM"}, {"measurement": "TGI", "value": 15.7, "unit": "µM"}]}, {"smiles": "O=C(NNc1nc2cc(F)cc(F)c2n2cccc12)c1ncccn1", "values": [{"measurement": "GI50", "value": 0.59, "unit": "µM"}, {"measurement": "TGI", "value": 3.79, "unit": "µM"}]}, {"smiles": "Cc1cn(-c2cc(C(=O)Nc3cccc(-n4ccc5c(NC(=O)c6ccccc6)nccc54)c3)cc(C(F)(F)F)c2)cn1", "values": [{"measurement": "GI50", "value": 0.229, "unit": "µM"}, {"measurement": "TGI", "value": 1.04, "unit": "µM"}]}, {"smiles": "CN(C)C(=S)SSC(=S)N(C)C", "values": [{"measurement": "GI50", "value": 17.1, "unit": "µM"}, {"measurement": "TGI", "value": 37.5, "unit": "µM"}]}, {"smiles": "C=CC(=O)N1CN(C(=O)C=C)CN(C(=O)C=C)C1", "values": [{"measurement": "GI50", "value": 1.46, "unit": "µM"}, {"measurement": "TGI", "value": 3.4, "unit": "µM"}]}, {"smiles": "CCN(CC)CCCCCCNc1cccc2cc(Br)cnc12", "values": [{"measurement": "GI50", "value": 1.96, "unit": "µM"}, {"measurement": "TGI", "value": 4.46, "unit": "µM"}]}, {"smiles": "COc1ccc(-c2nn(-c3cccc(Cl)c3)cc2-c2cc(-c3ccccc3)[nH]c(=O)c2C#N)cc1", "values": [{"measurement": "GI50", "value": 1.55, "unit": "µM"}, {"measurement": "TGI", "value": 7.51, "unit": "µM"}]}, {"smiles": "CC(C)(C)[Si](C)(C)OC1[C@@H](CNC(=O)NC(=O)CCl)O[C@@H](n2cnc3c(N)ncnc32)[C@H]1O[Si](C)(C)C(C)(C)C", "note": "(stereo partly drawn)", "values": [{"measurement": "GI50", "value": 0.802, "unit": "µM"}, {"measurement": "TGI", "value": 1.71, "unit": "µM"}]}, {"smiles": "COc1cc2c(Nc3cc(Cl)c(OC)c(Cl)c3)c(C#N)cnc2cc1OCCCN1CCN(C)CC1", "values": [{"measurement": "GI50", "value": 0.267, "unit": "µM"}, {"measurement": "TGI", "value": 1.64, "unit": "µM"}]}, {"smiles": "CCCCCCCCCCNC(=O)CI", "values": [{"measurement": "GI50", "value": 2.14, "unit": "µM"}, {"measurement": "TGI", "value": 4.86, "unit": "µM"}]}, {"smiles": "COc1cc(/C=C\\c2cc(OC)c(OC)c(OC)c2)cc(N/C=C\\C(=O)c2c[nH]c3ccccc23)c1OC", "values": [{"measurement": "GI50", "value": 1.28, "unit": "µM"}, {"measurement": "TGI", "value": 3.66, "unit": "µM"}]}, {"smiles": "N=C(N)c1ccc(-c2ccc(-c3cccs3)s2)cc1", "values": [{"measurement": "GI50", "value": 0.0564, "unit": "µM"}, {"measurement": "TGI", "value": 1.15, "unit": "µM"}]}, {"smiles": "Cc1cc(Nc2nc(-c3cn(-c4ccc(Cl)cc4)nn3)nc3ccccc23)n[nH]1", "values": [{"measurement": "GI50", "value": 10.4, "unit": "µM"}, {"measurement": "TGI", "value": 30.5, "unit": "µM"}]}, {"smiles": "Nc1cc(Br)c(-c2nnc(CCC(=O)c3nc4ccccc4[nH]3)o2)c(Br)c1", "values": [{"measurement": "GI50", "value": 1.93, "unit": "µM"}, {"measurement": "TGI", "value": 6.97, "unit": "µM"}]}, {"smiles": "N#CCCN1C/C(=C/c2ccc(Br)cc2)C(=O)/C(=C/c2ccc(Br)cc2)C1", "values": [{"measurement": "GI50", "value": 1.5, "unit": "µM"}, {"measurement": "TGI", "value": 3.62, "unit": "µM"}]}, {"smiles": "O=C(Nc1cc(Nc2ncccc2-c2ncnc3nc[nH]c23)ccc1F)c1cc(C(F)(F)F)cc(C(F)(F)F)c1", "values": [{"measurement": "GI50", "value": 3, "unit": "µM"}, {"measurement": "TGI", "value": 8.36, "unit": "µM"}]}, {"smiles": "CO[C@H]1Nc2c(ccc(C)c2O)C(=O)N2C=C(/C=C/C(N)=O)C[C@@H]12", "values": [{"measurement": "GI50", "value": 0.0208, "unit": "µM"}, {"measurement": "TGI", "value": 0.0465, "unit": "µM"}]}, {"smiles": "Cc1cc(N/N=C/c2ccccn2)nc2ccccc12", "values": [{"measurement": "GI50", "value": 0.252, "unit": "µM"}, {"measurement": "TGI", "value": 2.6, "unit": "µM"}]}, {"smiles": "N[C@H](CCC(=O)N[C@@H](Cc1c[nH]c2ccccc12)C(=O)O)C(=O)O", "values": [{"measurement": "GI50", "value": "> 100", "unit": "µM"}, {"measurement": "TGI", "value": "> 100", "unit": "µM"}]}, {"smiles": "O=C(NCc1ccc(Cn2c(=O)sn(-c3ccccc3)c2=O)cc1)OCc1ccc2cccc(O)c2n1", "values": [{"measurement": "GI50", "value": 0.552, "unit": "µM"}, {"measurement": "TGI", "value": 2.14, "unit": "µM"}]}, {"smiles": "Nc1cc2c(cc1Br)[nH]c(=O)c1ccccc12", "values": [{"measurement": "GI50", "value": 1.21, "unit": "µM"}, {"measurement": "TGI", "value": 5.41, "unit": "µM"}]}]}
